{"source": "patent US20040115813A1", "about": "“Real time measurement of cellular responses” (priority 2002, published 2004)", "type_in_all_cases": "cell-based, human", "key": {"HT-1080-dual-6 cells": {"system": "HT-1080-dual-6 cells", "test": "Real time observation of apoptotic process in vitro by fluorescence microscopy", "settings": "2 μM staurosporine; for apoptosis induction: imaged every 2 hours up to 12 hours; for nuclear/cytoplasmic morphology during apoptosis: images at 2-12 hours", "method": "HT-1080-dual-6 cells were incubated with 2 μM staurosporine for apoptosis induction. The cells were visualized under blue light and images were captured with a CCD camera and fluorescence microscope. […] Bar, 50 μm. […] Bar, 10 μm.\nTo capture the images of real time apoptotic processes, the HT-1080-dual-6 clone was used. Staurosporine (Alexis, San Diego, Calif.), dissolved in DMSO and stored at −80 degrees, was used for induction of apoptosis. 3×10^5 cells were seeded in a 25 cm^2 flask with RPMI 1640 with 10% FBS. Staurosporine was added the next day at a concentration of 2 μM. Every 2 hours, the flask was set under the fluorescent stereo microscope and real time images were captured at each time point."}, "PC-3 dual cells [1]": {"system": "PC-3 dual cells", "test": "DNA extraction and agarose gel electrophoresis (1.8%) for DNA fragmentation", "settings": "Taxol 0.8 μg/ml", "method": "(§1) PC-3 dual cells were treated with Taxol™ (0.8 ug/ml); thymidine (2 mM), and vinblastine (60 nM). Real-time imaging was done at 0, 12, 24, 36, and 48 hours. Cells were collected for DNA extraction and agarose gel electrophoresis (1.8%) analysis. […] The nuclear ring structures were […] by 24 hours."}, "PC-3 dual cells [2]": {"system": "PC-3 dual cells", "test": "Real-time visualization of drug-induced apoptosis and nuclear morphology in dual-labeled cells", "excerpt": "The dual-color cells could be easily placed in their cell cycle position by the “nuclear-cytoplasmic” ratio as observed in living cells. For fluorescence microscopy of these cells, a Leica fluorescence stereo microscope model LZ12 equipped with a mercury 50W lamp power supply was used. To visualize both GFP and RFP fluorescence at the same time, excitation was produced through a D425/60 band pass filter, 470 DCXR dichroic mirror, and emitted fluorescence was collected through a long pass filter GG475 (Chroma Technology, Brattleboro, Vt.).\nas §1"}}}
{"smiles": "CN[C@@H]1C[C@H]2O[C@@](C)([C@@H]1OC)n1c3ccccc3c3c4c(c5c6ccccc6n2c5c31)C(=O)NC4", "note": "[Staurosporine]", "values": [{"measurement": "apoptosis induction", "setting": "HT-1080-dual-6 cells", "result": "induced apoptosis"}, {"measurement": "apoptosis induction", "setting": "HT-1080-dual-6 cells; listed as staurosporine", "result": "Apoptosis was well induced"}, {"measurement": "nuclear/cytoplasmic morphology during apoptosis", "setting": "HT-1080-dual-6 cells", "result": "Progressive fragmentation of nucleus"}, {"measurement": "nuclear/cytoplasmic morphology during apoptosis", "setting": "HT-1080-dual-6 cells; listed as staurosporine", "result": "condensation of cytoplasm and nucleus and fragmentation of nucleus"}]}
{"smiles": "CC(=O)O[C@H]1C(=O)[C@@]2(C)[C@H]([C@H](OC(=O)c3ccccc3)[C@]3(O)C[C@H](OC(=O)[C@H](O)[C@@H](NC(=O)c4ccccc4)c4ccccc4)C(C)=C1C3(C)C)[C@]1(OC(C)=O)CO[C@@H]1C[C@@H]2O", "note": "[Taxol™, Paclitaxel]", "values": [{"measurement": "DNA fragmentation by gel electrophoresis", "setting": "PC-3 dual cells [1]; 24 hours", "result": "before DNA fragmentation occurred"}, {"measurement": "DNA fragmentation by gel electrophoresis", "setting": "PC-3 dual cells [1]; 48 hours", "result": "DNA fragmentation could be observed"}, {"measurement": "effect on nuclei (morphology)", "setting": "PC-3 dual cells [2]; Taxol 0.8 μg/ml, by 24 hours", "result": "form a ring-shaped structure"}, {"measurement": "apoptosis (aberrant nuclear structures and fragmentation)", "setting": "PC-3 dual cells [2]; Taxol 0.8 μg/ml, by 48 hours", "result": "entering apoptosis with very aberrant nuclear structures and fragmentation"}]}
{"smiles": "CC[C@]1(O)C[C@@H]2CN(CCc3c([nH]c4ccccc34)[C@@](C(=O)OC)(c3cc4c(cc3OC)N(C)[C@H]3[C@@](O)(C(=O)OC)[C@H](OC(C)=O)[C@]5(CC)C=CCN6CC[C@]43[C@@H]65)C2)C1", "note": "[vinblastine]", "values": [{"measurement": "effect on cell nuclei and cytoplasm (morphology)", "setting": "PC-3 dual cells [2]; vinblastine 60 nM", "result": "nuclei became more condensed and the cytoplasm appeared to expand"}]}
